Experimental data as given in patent publication US20140243292A1, “SUBSITUTED 2-(CHROMAN-6-YLOXYL)-THIAZOLES AND THEIR USE AS PHARMACEUTICALS” (Sanofi, priority 2011, published 2014).

Biological target: T1, human NCX1 (Homo sapiens, UniProt P32418)
T1 construct: expressed in transfected cells
Assay: NCX1 inhibition, forward mode (Ca2+ efflux out of cells), FLIPR calcium assay
Format: cell-based
Settings: CHO cells stably expressing human NCX1, read-out: NCX1fw IC50
Description: The sodium/calcium exchanger NCX1 can transport calcium ions and sodium ions through the cell membrane. The transport is an exchange of Ca^2+ and Na^+ in two directions depending on membrane potential and ion gradients. At the first direction, named “forward mode” or “calcium export mode”, Ca^2+ is transported out of the cell and Na^+ is transported into the cell. At the other direction, named “reverse mode” or “calcium import mode”, the transport directions are vice versa. The effect of the compounds of the invention on NCX1 was determined in CHO cells stably expressing human NCX1 (gene symbol SLC8A1; cf. WO 2009/115238). The assay is based on the monitoring of intracellular Ca^2+ concentrations using a calcium-sensitive fluorescence dye which is detected by means of a FLIPR device (Fluorimetric Imaging Plate Reader, Molecular Devices).
The assay is based on the monitoring of intracellular Ca^2+ concentrations using the PBX Calcium Assay Kit from BD (Becton, Dickinson and Company) with calcium indicator dye 51-9000177BKa (BD, 640177). CHO cells expressing NCX1 were loaded with the dye, and after a preincubation period with the test compound, Ionomycin (Calbiochem, 407950) was added. Ionomycin is an ionophor for Ca^2+ ions mediating an increase of intracellular Ca^2+ ions. Consequently, intracellular Ca^2+ ions are exchanged against extracellular Na^+ ions (Ca^2+ efflux, forward mode). The decrease of intracellular Ca^2+ ions was detected by measuring the fluorescence of the calcium indicator dye at a wavelength of 520 nm by a FLIPR device.
Briefly, similarly as for the reverse mode, for the forward mode transport assay 18000 cells per well were seeded into a 96 well microplate (Corning COSTAR 3904) and incubated overnight in culture medium (cf. above). A total volume of 100 μl medium per well was used. For the preparation of the FLIPR assay, the culture medium was removed from the plates and 100 μl of assay buffer (133.8 mM NaCl (Sigma, S5886); 4.7 mM KCl (Sigma, P3911); 1.25 mM MgCl2 (Merck, 1.05833.0250); 3.5 mM CaCl2(Merck, 1.02083.0250); 5 mM glucose (Sigma, G7021); 10 mM Hepes (Sigma, H4034); pH 7.4)) were added to each well in a washing step. Assay buffer was removed, and 100 μl of a solution of the test compound in assay buffer in different concentrations were added into the wells. Further, 100 μl of dye solution (0.09% (v/v) calcium indicator dye, 9.1% (v/v) signal enhancer (from PBX Calcium Assay Kit); in assay buffer) were added into each well. The plates were incubated in the dark at room temperature for 60 min. Meanwhile a 10 μM solution of Ionomycin in assay buffer (additionally containing 0.05% fetal calf serum (cf. above); 4° C.) was prepared and stored in the wells of a 96 well microplate (96 well microplate, polypropylene, U-shape (Greiner Bio-One, 650201)). The fluorescence monitoring was performed at 60 measuring points with measurement intervals of 2 sec. After the fifth measuring point, 50 μl of the Ionomycin solution were added to each well of the assay plate to give a final Ionomycin concentration of 2 μM. For the determination of the IC50 values the minimal fluorescence value was subtracted from the maximal fluorescence value for the fifteenth to fifty-fifth measuring points. The calculation of the IC50 values via the percentage inhibitions of Ca^2+ efflux out of cells (forward mode) effected by the test compound was performed in Biost@t Speed 2.0. “NCX1fw IC50” in Table 2 means the IC50 value for inhibition of NCX1 in forward mode (in μM (micromol/liter)).

IC50 [nM]	SMILES
600	Cc1ccccc1C1CCc2cc(Oc3ncc(C(=O)NCCO)s3)ccc2O1 (centres unmarked) [Example 299, 2-(2-o-Tolyl-chroman-6-yloxy)-thiazole-5-carboxylic acid (2-hydroxy-ethyl)-amide]
2500	Cc1ccccc1C1CCc2cc(Oc3ncc(CNC(=O)c4ccno4)s3)ccc2O1 (centres unmarked) [Example 329, Isoxazole-5-carboxylic acid [2-(2-o-tolyl-chroman-6-yloxy)-thiazol-5-ylmethyl]-amide]
